Measurements: patent US10918645B2 (LIFEARC, priority 2016, dated 2021)
pIC50: −log10 of the molar value.

Legend:
[1] = biological target: LRRK2 G2019S (Homo sapiens (Human), UniProt Q5S007, G2019S); test: Adapta Kinase Assay (LRRK2_IC50 assay); type: biochemical; settings: inhibition of LRRK2 G2019S
Protocol: In Adapta™ Kinase Assay (LRRK2_IC50 assay): the Kinase Reaction Buffer contained 5× Kinase Buffer S (Life Technologies, PV5213) and 2 mM DTT (Life Technologies, P2325).
The Adapta® universal kinase assay is a homogenous, fluorescent based immunoassay for the detection of ADP. In contrast to ATP depletion assays, the Adapta® assay is extremely sensitive to ADP formation such that a majority of the signal change occurs in the first 10-20% conversion of ATP to ADP. This makes the Adapta® universal kinase assay ideally suited for use with low activity kinases.
Prepare a 1× solution of kinase reaction buffer from the 5× Kinase Buffer S stock (listed above) by adding 2 ml of 5× stock to 8 ml of H2O to make 10 ml of 1× kinase reaction buffer. To this, add 20 μl of 1 M DTT.
Kinase reactions are performed in a 10 μl volume in low-volume 384-well plates. […] Other non—treated assay plates, while not tested, may also be suitable. The concentration of substrate in the assay is 100 μM, and the 1× kinase reaction buffer consists of 50 mM Tris-HCl pH8.5, 10 mM MgCl2, 1 mM EGTA, 0.01% Brij-35, and 2 mM DTT, plus any additional additives that may be required for a specific kinase. […] The plate is allowed to equilibrate at room temperature for at least 30 minutes before being read on a plate reader configured for Adapta™ TR-FRET.
The data presented in this document were generated using a BMG LABTECH PHERAstar plate reader using the appropriate filters and instrument settings for Adapta™. The Test Compounds are screened in 1% DMSO (final) in the well. For 8 point titrations, 5-fold serial dilutions are conducted from the starting concentration.
IC50 estimates were obtained using the software XLfit (IDBS Inc.).

[2] = system: transgenic Drosophila expressing LRRK2-G2019S in dopamine (DA) neurons; test: Drosophila model survival rate; type: in vivo; settings: significance compared to DMSO negative control
From the text: (§1) Drosophila model was used to evaluate Examples in vivo. The GAL4/UAS system developed by Andrea Brand and Norbert Perrimon in 1993 [45] was used to generate transgenic Drosophila expressing LRRK2-G2019S in dopamine (DA) neurons. The system has two parts: the GAL4 gene, encoding the yeast transcription activator protein GAL4, and the UAS (Upstream Activation Sequence), an enhancer to which GAL4 specifically binds to activate gene transcription. This system takes advantage of the yeast GAL4 transcription factor, which binds specifically to the UAS.
To express LRRK2-G2019S in DA neurons, the UAS-Wild Type-LRRK2 and UAS-G2019S-LRRK2 transgenes were combined with the dopa decarboxylase (ddc)-GAL4 driver. The 10 μM GW5074 was used for the positive control. […]
Twenty newly enclosed female Drosophila were collected and placed in a food vial. The Drosophila were moved to fresh food vials every other day at which time deaths were scored.
Based on Drosophila′ survival curve, the 50% survival time parameter indicates the time at which half of the Drosophila remained alive and was used to compare the survival ratio between the different groups. The mean 50% survival times and the standard errors were calculated based on 4 separate experiments for each group. The data were analysed by GraphPad PRISM® 6.0 software.

[3] = system: transgenic Drosophila expressing LRRK2-G2019S in dopamine (DA) neurons; test: Drosophila model climbing assay (negative geotaxis); type: in vivo; settings: significance compared to DMSO negative control
From the text: as §1
To express LRRK2-G2019S in DA neurons, the UAS-Wild Type-LRRK2 and UAS-G2019S-LRRK2 transgenes were combined with the dopa decarboxylase (ddc)-GAL4 driver. The 10 μM GW5074 was used for the positive control. The negative control group was DMSO control (all compounds were dissolved in DMSO with 1:1000 dillution). The Drosophila were maintained at 25° C. on a 12 hour light-12 hour dark cycle. GW5074 was used as positive control.
The negative geotaxis assay was used to analyse the locomotors ability of the Drosophila. Twenty Drosophila from each vial and 4 vials for each group were performed the climbing assay weekly.
The tested Drosophila were transferred into a vertical plastic tube (15 cm tall, 1.5 cm in diameter). After 30 min of rest at room temperature, the Drosophila were gently tapped to the bottom of the tube, the numbers of Drosophila that could climb to or above the test line within 10 seconds were counted and the percent were calculated.
The climbing abilities were analysed based on three separate experiments for each vial and the data were analysed by GraphPad PRISM® 6.0 software.

[4] = biological target: LRRK2 (phospho S935) in Drosophila brain lysates (Homo sapiens (Human), UniProt Q5S007, G2019S); test: Drosophila model kinase assays at week 6; type: in vivo; settings: ratio of phosphate LRRK2 protein to Flag protein, significance compared to DMSO negative control
Protocol: The 10 μM GW5074 was used for the positive control. The negative control group was DMSO control (all compounds were dissolved in DMSO with 1:1000 dillution). The Drosophila were maintained at 25° C. on a 12 hour light-12 hour dark cycle. GW5074 was used as positive control [47].
The adult Drosophila heads were homogenized on ice, and the brain lysates were performed kinase reaction in kinase reaction buffer with ATP and DTT.
Then the lysates were electrophoresed through 12% SDS-PAGE gels and transferred to PVDF membranes (Millipore). The membranes were blocked in TBST with 5% skimmed milk for 1 hour at room temperature and then incubated in anti-LRRK2 pSer935 antibody (Abcam, ab133450) and anti-Flag antibody overnight at 4° C.
The proteins were detected with HRP-conjugated secondary antibodies and ECL detection reagents. The optical density of immunoblotting was analysed by Image J software and the ratio of phosphate LRRK2 protein compare to Flag protein were calculated and the data were analysed by GraphPad PRISM® 6.0 software.

[5] = biological target: JAK2 (Homo sapiens (Human), UniProt O60674); test: JAK2 kinase selectivity assay (33P panel); type: biochemical; settings: 1 μM inhibitor concentration
Chain of JAK2 (O60674 whole entry, species assumed): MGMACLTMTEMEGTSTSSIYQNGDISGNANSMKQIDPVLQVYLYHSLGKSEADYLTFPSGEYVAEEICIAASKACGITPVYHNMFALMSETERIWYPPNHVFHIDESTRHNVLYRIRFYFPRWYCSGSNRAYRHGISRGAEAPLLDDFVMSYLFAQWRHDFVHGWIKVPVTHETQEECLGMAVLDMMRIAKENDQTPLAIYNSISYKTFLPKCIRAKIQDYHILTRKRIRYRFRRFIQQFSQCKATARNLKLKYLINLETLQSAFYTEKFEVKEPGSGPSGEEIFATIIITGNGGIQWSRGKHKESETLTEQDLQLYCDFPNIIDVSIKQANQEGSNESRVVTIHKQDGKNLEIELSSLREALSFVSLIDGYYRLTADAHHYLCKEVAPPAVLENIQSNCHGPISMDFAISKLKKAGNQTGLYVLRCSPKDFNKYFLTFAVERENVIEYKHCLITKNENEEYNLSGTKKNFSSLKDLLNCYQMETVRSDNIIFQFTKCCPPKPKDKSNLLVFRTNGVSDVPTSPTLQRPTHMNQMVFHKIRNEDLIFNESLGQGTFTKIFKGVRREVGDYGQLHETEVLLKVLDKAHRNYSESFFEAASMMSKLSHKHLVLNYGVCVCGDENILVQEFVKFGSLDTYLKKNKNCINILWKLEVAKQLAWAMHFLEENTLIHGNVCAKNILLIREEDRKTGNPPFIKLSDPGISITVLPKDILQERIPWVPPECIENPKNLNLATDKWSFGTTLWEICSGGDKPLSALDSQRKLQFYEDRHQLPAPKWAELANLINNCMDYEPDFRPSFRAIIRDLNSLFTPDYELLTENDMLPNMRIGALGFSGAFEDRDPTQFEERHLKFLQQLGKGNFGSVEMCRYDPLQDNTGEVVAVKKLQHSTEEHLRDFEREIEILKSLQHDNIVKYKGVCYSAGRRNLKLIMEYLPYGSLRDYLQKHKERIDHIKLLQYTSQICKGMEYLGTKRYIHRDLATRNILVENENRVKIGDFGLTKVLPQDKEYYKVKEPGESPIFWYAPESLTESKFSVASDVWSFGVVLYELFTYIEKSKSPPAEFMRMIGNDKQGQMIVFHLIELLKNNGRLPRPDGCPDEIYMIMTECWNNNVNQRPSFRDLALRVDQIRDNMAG
Protocol: JAK2 (5-20 mU diluted in 50 mM Tris pH 7.5, 0.1 mM EGTA, 0.05% 0-mercaptoethanol, 1 mg/ml BSA) is assayed against PDKtide ([…]-[…]) in a final volume of 25.5 μl containing 50 mM Tris pH 7.5, 0.1 mM EGTA, 0.05% 0-mercaptoethanol, 100 μM substrate peptide, 10 mM magnesium acetate and 0.005 mM [33P-γ-ATP] (50-1000 cpm/pmole) and incubated for 30 min at room temperature Assays are stopped by addition of 5 μl of 0.5 M (3%) orthophosphoric acid and then harvested onto P81 Unifilter plates with a wash buffer of 50 mM orthophosphoric acid.

Chain of LRRK2 G2019S (Q5S007 970-2527 G2019S): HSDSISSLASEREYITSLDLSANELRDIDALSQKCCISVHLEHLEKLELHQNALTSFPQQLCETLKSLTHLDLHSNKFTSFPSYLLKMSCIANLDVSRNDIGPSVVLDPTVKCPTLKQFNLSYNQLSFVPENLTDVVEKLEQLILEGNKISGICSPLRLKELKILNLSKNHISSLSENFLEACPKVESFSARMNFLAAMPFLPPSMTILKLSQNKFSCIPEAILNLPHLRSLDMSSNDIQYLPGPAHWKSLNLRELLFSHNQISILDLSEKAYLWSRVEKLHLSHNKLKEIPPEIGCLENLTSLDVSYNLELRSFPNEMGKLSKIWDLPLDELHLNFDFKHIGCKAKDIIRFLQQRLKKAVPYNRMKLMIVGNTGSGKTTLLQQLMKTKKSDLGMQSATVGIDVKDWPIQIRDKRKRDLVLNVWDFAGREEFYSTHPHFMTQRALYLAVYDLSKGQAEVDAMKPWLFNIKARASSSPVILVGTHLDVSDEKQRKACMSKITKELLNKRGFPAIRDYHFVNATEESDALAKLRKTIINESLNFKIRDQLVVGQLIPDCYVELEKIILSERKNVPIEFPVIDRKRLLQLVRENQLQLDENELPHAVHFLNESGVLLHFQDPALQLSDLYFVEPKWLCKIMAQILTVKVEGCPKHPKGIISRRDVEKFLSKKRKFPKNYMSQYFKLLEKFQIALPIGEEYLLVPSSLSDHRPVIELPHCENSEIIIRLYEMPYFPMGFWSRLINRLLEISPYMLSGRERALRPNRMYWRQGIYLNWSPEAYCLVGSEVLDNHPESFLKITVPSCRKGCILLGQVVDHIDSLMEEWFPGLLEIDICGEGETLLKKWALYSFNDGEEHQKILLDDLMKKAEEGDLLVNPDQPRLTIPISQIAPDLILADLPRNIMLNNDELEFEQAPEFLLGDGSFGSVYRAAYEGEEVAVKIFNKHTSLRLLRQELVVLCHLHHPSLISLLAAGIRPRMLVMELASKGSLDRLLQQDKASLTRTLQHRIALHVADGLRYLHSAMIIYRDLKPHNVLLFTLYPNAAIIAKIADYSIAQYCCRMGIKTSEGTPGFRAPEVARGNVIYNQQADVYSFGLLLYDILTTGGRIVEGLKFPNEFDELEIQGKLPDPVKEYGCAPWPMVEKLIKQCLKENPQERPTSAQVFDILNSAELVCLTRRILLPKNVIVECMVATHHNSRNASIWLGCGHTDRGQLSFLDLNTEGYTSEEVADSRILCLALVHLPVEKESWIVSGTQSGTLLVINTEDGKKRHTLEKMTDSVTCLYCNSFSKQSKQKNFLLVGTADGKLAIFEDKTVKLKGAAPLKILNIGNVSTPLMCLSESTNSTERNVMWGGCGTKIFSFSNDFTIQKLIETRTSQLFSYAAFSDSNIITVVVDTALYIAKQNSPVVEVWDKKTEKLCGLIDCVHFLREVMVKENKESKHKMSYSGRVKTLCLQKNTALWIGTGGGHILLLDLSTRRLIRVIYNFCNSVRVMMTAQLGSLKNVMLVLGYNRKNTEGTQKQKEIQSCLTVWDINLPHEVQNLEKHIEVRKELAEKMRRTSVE

c1cc2[nH]nc3c2c(n1)N(C1CCOCC1)CCC3 [Example 29, 6-(tetrahydro-2H-pyran-4-yl)-6,7,8,9-tetrahydro-2H-1,2,5,6-tetraazabenzo[cd]azulene]
pIC50 [1]: 6.82 | Survival Rate [2]: * (P < 0.05, compared to DMSO negative control) | Climbing Assay 3 weeks ([3]; 3 weeks): * (P < 0.05, compared to DMSO negative control) | Climbing Assay 4 weeks ([3]; 4 weeks): ** (P < 0.01, compared to DMSO negative control) | Climbing Assay 5 weeks ([3]; 5 weeks): * (P < 0.05, compared to DMSO negative control) | Climbing Assay 6 weeks ([3]; 6 weeks): * (P < 0.05, compared to DMSO negative control) | Kinase Assays [4]: * (P < 0.05, compared to DMSO negative control)

CN1CCC(N2Cc3ccccc3-c3n[nH]c4ccnc2c34)CC1 [Example 55]
pIC50 [1]: 7.30

c1cc2[nH]nc3c2c(n1)N(C1CCCC1)CCC3 [Example 23, 6-cyclopentyl-6,7,8,9-tetrahydro-2H-1,2,5,6-tetraazabenzo[cd]azulene]
percentage inhibition of JAK2 [5]: 12 percentage

c1cc2[nH]nc3c2c(n1)N(C1CCC1)CCC3 [Example 22, 6-cyclobutyl-6,7,8,9-tetrahydro-2H-1,2,5,6-tetraazabenzo[cd]azulene]
percentage inhibition of JAK2 [5]: 5 percentage
